Values quoted from earlier work as cited in US10149821B2, “Orosoluble and/or effervescent compositions containing at least a salt of S-adenosyl methionine (SAMe)” (priority 2009, dated 2018).

How the values were obtained:
[1] = not given; remark: listed apart in the source
[2] = temperatures above 0° C.
[3] = oral intake, SAMe radiolabeled on the carbon of the methyl group

In the case of `C[S+](CC[C@H](N)C(=O)O)C[C@H]1O[C@@H](n2cnc3c(N)ncnc32)[C@H](O)[C@@H]1O` (some centres unmarked) [SAMe, S-adenosyl methionine], the “half-life in the liver” value is listed as “about 5 minutes”, the “plasma levels of the non-modified molecule, % of the administered dose” value ([1]; oral intake, swallowable gastro-protected tablets) is listed as 5-10% and the “plasma bioavailability, % of the administered dose” value ([1]; parenteral administration (endovenous or intramuscular)) is listed as 90-100%. For the same compound, the stability [2] was “very unstable” and the “hepatic metabolism, % of the administered radioactivity” value [3] was “about 60%”.
